What was measured:
[1] = molecular target: PD-L1 His protein / PD-1 Fc protein (Homo sapiens (Human), UniProt Q9NZQ7); test: HTRF Assay (PD-1/PD-L1 interaction); format: binding; details: PD-L1 His 6 nM, PD-1 Fc 6 nM
human PD-L1 = human PD-L1 (Homo sapiens (Human), UniProt Q9NZQ7); test: T cell activation luciferase reporter cell culture system (T Cell Activation Assay); format: cell-based; details: luciferase reporter assay; PD-L1 aAPC/CHO-K1 cells with PD-1 effector Jurkat T cells
Chain of human PD-L1 (Q9NZQ7 19-290): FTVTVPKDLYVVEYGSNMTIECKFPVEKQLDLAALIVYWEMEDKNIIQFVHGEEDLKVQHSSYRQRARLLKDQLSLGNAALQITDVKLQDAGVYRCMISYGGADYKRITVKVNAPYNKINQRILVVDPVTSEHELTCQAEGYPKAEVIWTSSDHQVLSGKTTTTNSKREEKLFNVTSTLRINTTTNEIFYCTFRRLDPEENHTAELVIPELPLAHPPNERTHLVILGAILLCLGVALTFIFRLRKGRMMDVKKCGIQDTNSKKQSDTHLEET

Chain of PD-L1 His protein / PD-1 Fc protein (Q9NZQ7 19-238): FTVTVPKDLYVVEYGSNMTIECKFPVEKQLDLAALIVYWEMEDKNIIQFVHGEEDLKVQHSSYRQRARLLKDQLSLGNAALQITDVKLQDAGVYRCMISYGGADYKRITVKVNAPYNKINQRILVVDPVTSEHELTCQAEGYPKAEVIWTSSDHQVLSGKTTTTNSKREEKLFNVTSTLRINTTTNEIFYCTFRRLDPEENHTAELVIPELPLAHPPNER

Compound | IC50 [1] [nM] | EC50 (human PD-L1) [nM]
COc1nc(-c2cccc(-c3ccnc(-c4ccc5c(CNC[C@H](C)OC)cn(C)c5c4)c3Cl)c2Cl)ccc1CNC[C@@H]1CCC(=O)N1 [Compound 40, (S)-5-((((6-(2-chloro-3-(3-chloro-2-(3-((((S)-2-methoxypropyl)amino)methyl)-1-methyl-1H-indol-6-yl)pyridin-4-yl)phenyl)-2-methoxypyridin-3-yl)methyl)amino)methyl)pyrrolidin-2-one] | 10.3 | 4150
COc1cc(-c2nccc(-c3cccc(-c4ccc(CNC[C@H](C)O)c(OC)n4)c3Cl)c2Cl)cc2c1CN(C[C@H](C)O)CC2 [Compound 214, (S)-1-(((6-(2-chloro-3-(3-chloro-2-(2-((S)-2-hydroxypropyl)-8-methoxy-1,2,3,4-tetrahydroisoquinolin-6-yl)pyridin-4-yl)phenyl)-2-methoxypyridin-3-yl)methyl)amino)propan-2-ol] | 4.31 | 27
CN1CCNCc2ccc(-c3nccc(-c4cccc(-c5ccc6c(CNC[C@@H]7CCC(=O)N7)cn(C)c6n5)c4Cl)c3Cl)cc21 [Compound 9, (S)-5-((((6-(2-chloro-3-(3-chloro-2-(1-methyl-2,3,4,5-tetrahydro-1H-benzo[e][1,4]diazepin-8-yl)pyridin-4-yl)phenyl)-1-methyl-1H-pyrrolo[2,3-b]pyridin-3-yl)methyl)amino)methyl)pyrrolidin-2-one] | 15.5 | 212
COc1nc(-c2cccc(-c3ccnc(-c4ccc5c(c4)CCC[C@@H]5NC[C@@H]4CCC(=O)N4)c3Cl)c2Cl)ccc1CNC[C@@H]1CCC(=O)N1 [Compound 184, (S)-5-((((6-(2-chloro-3-(3-chloro-2-((S)-5-((((S)-5-oxopyrrolidin-2-yl)methyl)amino)-5,6,7,8-tetrahydronaphthalen-2-yl)pyridine-4-yl)phenyl)-2-methoxypyridin-3-yl)methyl)amino)methyl)pyridine1335ne-2-one] | 15.5 | 80.4
COc1nc(-c2cccc(-c3ccnc(-c4cc5c(=O)n(C)c(CN6CC7(CC(O)C7)C6)nn5c4)c3Cl)c2Cl)ccc1CNC[C@@H]1CCC(=O)N1 [Compound 48, (S)-6-(3-chloro-4-(2-chloro-3-(6-methoxy-5-((((5-oxopyrrolidin-2-yl)methyl)amino)methyl)pyridin-2-yl)phenyl)pyridin-2-yl)-2-((6-hydroxy-2-azaspiro[3.3]heptan-2-yl)methyl)-3-methylpyrrolo[2,1-f][1,2,4]triazin-4(3H)-one] | 0.04 | 18.7
COc1nc(-c2cccc(-c3ccnc(-c4ccc5c(c4)OCCN(C[C@H](C)O)C5)c3Cl)c2Cl)ccc1CNC[C@@H]1CCC(=O)N1 [Compound 25, (S)-5-((((6-(2-chloro-3-(3-chloro-2-(4-((S)-2-hydroxypropyl)-2,3,4,5-tetrahydrobenzo[f][1,4]oxazepin-8-yl)pyridin-4-yl)phenyl)-2-methoxypyridin-3-yl)methyl)amino)methyl)pyrrolidin-2-one] | 0.5 | 334
COc1nc(-c2cccc(-c3ccnc(-c4ccc5c(c4)CNC5)c3Cl)c2Cl)ccc1CN1CC2(CNC(=O)C2)C1 [Compound 230, 2-((6-(2-chloro-3-(3-chloro-2-(isoindolin-5-yl)pyridin-4-yl)phenyl)-2-methoxypyridin-3-yl)methyl)-2,6-diazaspiro[3.4]octan-7-one] | 10.8 | 392
COc1nc(-c2ccnc(-c3cccc4c3CC[C@@H]4Nc3nc(OC)c(CN4CC5(CNC(=O)C5)C4)nc3C(F)(F)F)c2Cl)ccc1CN1CC2(CNC(=O)C2)C1 [Example 304, (S)-2-((3′-chloro-6-methoxy-2′-(1-((6-methoxy-5-((7-oxo-2,6-diazaspiro[3.4]octan-2-yl)methyl)-3-(trifluoromethyl)pyrazin-2-yl)amino)-2,3-dihydro-1H-inden-4-yl)-[2,4′-bipyridin]-5-yl)methyl)-2,6-diazaspiro[3.4]octan-7-one] | 6.51 | 197

From patent US20240246964A1 (Arbutus Biopharma Corporation, priority 2021, published 2024)
